pEC50, pIC50: −log10 of the molar value. Like-named read-outs stand apart in the source and are kept apart here.
Experiments:
[1] = system: NCI-H358 cells (K-Ras G12C); experiment: CellTiter-Glo cell viability, NCI-H358; type: cell-based, human; conditions: K-Ras G12C, 5-day treatment, read-out: H358 Cell Viability IC50
Method: Note—The following protocol describes a procedure for monitoring cell viability of K-Ras mutant cancer cell lines in response to a compound of the invention. Other RAS isoforms may be employed, though the number of cells to be seeded will vary based on cell line used.
Test compounds (132.5 nl) were directly dispensed into the assay plates containing cells. […] On day 5, assay plates and their contents were equilibrated to room temperature for approximately 30 minutes. […] Luminescence was measured using the PerkinElmer Enspire. Data were normalized by the following: (Sample signal/Avg. DMSO)*100. The data were fit using a four-parameter logistic fit.

[2] = biological target: KRAS G12C (Homo sapiens (Human), UniProt P01116+P62937, G12C); experiment: Ras-Raf disruption/FRET/MOA assay (BRAF RBD, Cyclophilin A); type: biochemical; conditions: read-out: KRAS G12C FRET IC50
Outline: (§1)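 TR-FRET read after 1.5 h with 10 nM anti-His Eu-W1024 and 50 nM anti-GST APC, following 3 h at 25 °C of GMPPNP-loaded His6-Ras (12.5 nM), GST-BRAF RBD (50 nM) and Cyclophilin A (25 μM) with compound from 30 μM final, 10 points, 3-fold. IC50 reported; pH 7.3 HEPES, 100 mM NaCl.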

[3] = biological target: KRAS G12D (Homo sapiens (Human), UniProt P01116+P62937, G12D); experiment: as above; type: biochemical; conditions: read-out: KRAS G12D FRET IC50
Outline: as §1

[4] = biological target: KRAS G12S (Homo sapiens (Human), UniProt P01116+P62937, G12S); experiment: as above; type: biochemical; conditions: read-out: KRAS G12S FRET IC50
Outline: as §1

[5] = biological target: KRAS G12V (Homo sapiens (Human), UniProt P01116+P62937, G12V); experiment: as above; type: biochemical; conditions: read-out: KRAS G12V FRET IC50
Outline: as §1

[6] = biological target: KRAS G13C (Homo sapiens (Human), UniProt P01116+P62937, G13C); experiment: as above; type: biochemical; conditions: read-out: KRAS G13C FRET IC50
Outline: as §1

[7] = biological target: KRAS G13D (Homo sapiens (Human), UniProt P01116+P62937, G13D); experiment: as above; type: biochemical; conditions: read-out: KRAS G13D FRET data IC50
Outline: as §1

[8] = biological target: KRAS WT (Homo sapiens (Human), UniProt P01116+P62937); experiment: as above; type: biochemical; conditions: read-out: KRAS WT FRET data IC50
Outline: as §1

[9] = biological target: NRAS G12C (Homo sapiens (Human), UniProt P01111+P62937, G12C); experiment: as above; type: biochemical; conditions: read-out: NRAS G12C FRET data IC50
Outline: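 Ras-GMPPNP (12.5 nM), BRAF RBD (50 nM) and 25 μM Cyclophilin A were incubated with compound for 3 h at 25° C, then detected 1.5 h with anti-His Eu and anti-GST APC; IC50 values follow from the reduced TR-FRET ratio.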

[10] = system: K-Ras G12C (NCI-H358 cells); experiment: Potency assay: pERK in NCI-H358 cells; type: cell-based, human; conditions: NCI-H358 cells, 4 hours, read-out: pERK EC50 (H358 KRAS G12C)
Outline: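 Cells plated the day before were exposed for 4 h at 37° C, 5% CO2 to a 10-point, 3-fold DMSO dilution series (10 mM top stock), in duplicate. Phospho-ERK was read by AlphaLISA SureFire Ultra or by In-Cell Western with DRAQ5 DNA stain, and IC50 came from a 4-parameter sigmoidal fit.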

[11] = system: NCI-H358 (K-Ras G12C); experiment: CellTiter-Glo cell viability assay, NCI-H358; type: cell-based, human; conditions: 5-day treatment, read-out: H358 Cell Viability assay data (K-Ras G12C, IC50)
Outline: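 After direct compound addition, plates were incubated to day 5 and equilibrated at room temperature for about 30 minutes before CellTiter-Glo reading. Values derive from luminescence relative to the DMSO mean, fitted with a four-parameter logistic model.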

[12] = system: Capan-1 cells (K-Ras G12V); experiment: CellTiter-Glo cell viability, Capan-1; type: cell-based, human; conditions: Homo sapiens, CAPAN-1, 120 h, K-Ras G12V, 5-day treatment; read-out: Capan-1 Cell Viability IC50
Outline: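 Endpoint: CellTiter-Glo luminescence on day 5, following ~30 min at room temperature. Data as (sample/mean DMSO)×100, four-parameter logistic fit.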

Chain of NRAS G12C (P01111 whole entry G12C): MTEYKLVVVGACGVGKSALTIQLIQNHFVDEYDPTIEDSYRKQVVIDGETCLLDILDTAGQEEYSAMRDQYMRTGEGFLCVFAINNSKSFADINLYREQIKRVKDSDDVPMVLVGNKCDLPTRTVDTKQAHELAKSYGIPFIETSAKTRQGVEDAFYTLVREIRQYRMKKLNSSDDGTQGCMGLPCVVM
Chain of NRAS G12C (P62937 whole entry): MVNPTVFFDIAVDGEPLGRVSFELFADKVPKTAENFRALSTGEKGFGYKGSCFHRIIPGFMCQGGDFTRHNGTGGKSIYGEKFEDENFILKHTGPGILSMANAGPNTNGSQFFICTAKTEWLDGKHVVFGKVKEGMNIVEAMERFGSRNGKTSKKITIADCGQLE

pIC50 ([1]; Homo sapiens, NCI-H358, 120 h) | pIC50 [2] | pIC50 [3] | pIC50 [4] | pIC50 [5] | pIC50 [6] | pIC50 [7] | pIC50 [8] | pIC50 [9] | pEC50 ([10]; Homo sapiens) | pIC50 ([11]; Homo sapiens, NCI-H358, 120 h) | Compound | pIC50 [1] | pEC50 [10] | pIC50 [11] | pIC50 [12]
5.00 to 6.00 | 6.00 to 7.00 | 6.00 to 7.00 | 6.00 to 7.00 | 5.00 to 6.00 | 6.00 to 7.00 | 6.00 to 7.00 | 6.00 to 7.00 | 6.00 to 7.00 |  |  | CCn1c(-c2cnccc2COC)c2c3cc(ccc31)-c1cc(O)cc(c1)C[C@H](NC(=O)[C@H](C(C)C)N(C)C(=O)CCCCN)C(=O)N1CCC[C@H](N1)C(=O)OCC(C)(C)C2 [Compound A66] |  |  |  | 
< 5.00 | 6.00 to 7.00 | 5.00 to 6.00 | 6.00 to 7.00 | 5.00 to 6.00 | 6.00 to 7.00 | 5.00 to 6.00 | 5.00 to 6.00 |  | > 5.30 | 7.00 to 8.00 | CCn1c(-c2ccccc2CCOC)c2c3cc(ccc31)-c1cc(O)cc(c1)C[C@H](NC(=O)[C@H](C(C)C)N(C)C(=O)CNC(=N)N)C(=O)N1CCC[C@H](N1)C(=O)OCC(C)(C)C2 [Compound A69] |  |  |  | 
6.00 to 7.00 | > 8.00 |  | 7.00 to 8.00 | 7.00 to 8.00 |  | 7.00 to 8.00 |  | > 8.00 |  |  | CCn1c(-c2cccnc2[C@H](C)OC)c2c3cc(ccc31)-c1cc(O)cc(c1)C[C@H](NC(=O)[C@H](C(C)C)N(C)C(=O)[C@H]1C[C@@H]1O)C(=O)N1CCC[C@H](N1)C(=O)OCC(C)(C)C2 [Compound A323] |  |  |  | 6.00 to 7.00

The remaining lines, values behind:

Compound | pIC50 ([1]; Homo sapiens, NCI-H358, 120 h) | pIC50 [2] | pIC50 [3] | pIC50 [4] | pIC50 [5] | pIC50 [6] | pIC50 [7] | pIC50 [8] | pIC50 [9] | pEC50 ([10]; Homo sapiens) | pIC50 ([11]; Homo sapiens, NCI-H358, 120 h) | pIC50 [1] | pEC50 [10] | pIC50 [11] | pIC50 [12]
CCn1c(-c2cnccc2COC)c2c3cc(ccc31)-c1cc(O)cc(c1)C[C@H](NC(=O)[C@H](C(C)C)N(C)c1cnc(N)[nH]c1=O)C(=O)N1CCC[C@H](N1)C(=O)OCC(C)(C)C2 [Compound A63] | < 5.00 | 5.00 to 6.00 | < 5.00 | 5.00 to 6.00 | 5.00 to 6.00 | 5.00 to 6.00 | 5.00 to 6.00 | 5.00 to 6.00 | 5.00 to 6.00 |  |  |  |  |  | 
CCn1c(-c2cccnc2COC)c2c3cc(ccc31)-c1cc(O)cc(c1)C[C@H](NC(=O)[C@H](C(C)C)N(C)C(=O)c1ccc(NC(=O)/C=C/CN(C)C)cn1)C(=O)N1CCC[C@H](N1)C(=O)OCC(C)(C)C2 [Compound A67, (2E)-4-(dimethylamino)-N-(6-{[(1S)-1-{[(8S,14S)-22-ethyl-4-hydroxy-21-[2-(methoxymethyl)pyridin-3-yl]-18,18-dimethyl-9,15-dioxo-16-oxa-10,22,28-triazapentacyclo [18.5.2.1^2,6.1^10,14.0^23,27]nonacosa-1 (26),2,4,6 (29),20,23 (27),24-heptaen-8-yl]carbamoyl}-2-methylpropyl](methyl)carbamoyl}pyridin-3-yl) but-2-enamide] |  | 7.00 to 8.00 | 6.00 to 7.00 | 6.00 to 7.00 | 6.00 to 7.00 | 7.00 to 8.00 |  |  |  |  |  | 5.00 to 6.00 | > 5.30 | 6.00 to 7.00 | 
CCn1c(-c2cccnc2[C@H](C)OC)c2c3cc(ccc31)-c1cc(O)cc(c1)C[C@H](NC(=O)[C@H](C(C)C)N(C)C(=O)C1(F)CC1)C(=O)N1CCC[C@H](N1)C(=O)OCC(C)(C)C2 [Compound A165] | 7.00 to 8.00 | 7.00 to 8.00 | 6.00 to 7.00 | 7.00 to 8.00 |  | 7.00 to 8.00 | 7.00 to 8.00 | 7.00 to 8.00 | 7.00 to 8.00 |  |  |  |  |  | 
(2S)—N-[(8S,14S)-22-ethyl-4-hydroxy-21-[4-(methoxymethyl)pyridin-3-yl]-18,18-dimethyl-9,15-dioxo-16-oxa-10,22,28-triazapentacyclo [18.5.2.1^2,6.1^10,14.0^23,27]nonacosa-1 (26),2,4,6 (29),20,23 (27),24-heptaen-8-yl]-2-{1-[(3S)-1-{2-[(3R)-3-hydroxypyrrolidin-1-yl]acetyl}pyrrolidin-3-yl]-N-methylformamido}-3-methylbutanamide [Compound A6] |  | 7.00 to 8.00 | 6.00 to 7.00 | 7.00 to 8.00 | 6.00 to 7.00 | 6.00 to 7.00 |  |  |  |  |  | 5.00 to 6.00 | > 5.30 | 6.00 to 7.00 | 

From patent US20250195521A1 (Revolution Medicines, Inc., priority 2020, published 2025)
